Laboratory results as given in patent US4742045A, “Glycopeptide antibiotics” (SmithKline Beckman Corporation, priority 1986, dated 1988).
≈ marks a conversion by molar mass, not a printed value.

Columns and labels:
[1] = format: physicochemical
Excerpt: The invention includes within its scope pharmaceutical compositions containing at least one of the above-mentioned antibiotic compounds and a pharmaceutically acceptable carrier. The compositions may also contain other active antibacterial agents. The compositions may be made up in any pharmaceutical form appropriate for the route of administration in question. Such compositions are exemplified by solid compositions for oral administration, such as tablets, capsules, pills, powders and granules; liquid compositions for oral administration such as solutions, suspensions, syrups and elixirs; preparations for parenteral administration such as sterile solutions, suspensions or emulsions; and preparations for topical administration such as gels, creams, ointments or salves. […] In 40% prophylene glycol in water (V/V), the solubility of HPB4 free base is greater than about 200 mg/ml. […] The solubility of HPB4.K is about 300 mg/ml. The solubility of HPB4.2HCl is about 600 mg/ml.
(§1) The solubility of the potassium salt is about 300 mg/ml in water.

[2] = pH of aqueous solution; format: physicochemical; conditions: 100 mg/ml aqueous solution
Description: as §1

[3] = system: Staphylococcus aureus; test: standard microtiter assay, minimum inhibitory concentration; format: cell-based; conditions: for MIC: Table 5 organism 1 S. aureus
Excerpt: (§2) Representative results of standard microtiter assays are reported in Tables 1, 2 and 3 which follow, as the minimum inhibitory concentration of antibiotic (μg/ml).
(§3) In Table 1, test organisms 1-13 were different strains of Staphylococcus aureus, and 14-16 were different strains of Staphylococcus epidermidis. In Table 2, test organisms 1-5 were different strains of S. aureus; 6, 8, 12 and 14 were different strains of S. epidermidis; 7 was a Staphylococcus haemolyticus; 9 and 10 were different strains of Streptococcus faecalis; 11 was a Streptococcus pyogenes; and 13 was a Staphylococcus saprophyticus. In Table 3, test organisms 1-3 were different strains of S. aureus; 4 and 6 were different strains of S. epidermidis; 5 was a S. haemolyticus and 7 and 8 were different strains of Streptococcus faecalis. Except where individual components are indicated, the CWI-785 antibiotic employed was the CWI-785 complex; in some cases, HCl salts of the CWI-785 antibiotic were employed.
(§4) The number of strains tested is shown in parentheses below each organism. The average MIC is reported in μg/ml.
(§5) In Table 5 are shown data from standard microtiter assays carried out in a presence of no serum, 50% human serum (hum.) and 50% mouse serum (mse.). The test organisms were 1: S. aureus; 2,4 and 5: different strains of S. epidermidis; 3: S. haemolyticus; 6: S. saprophyticus; 7 and 8: different strains of S. faecalis.

[4] = system: Streptococcus faecalis; test: as above; format: cell-based
Excerpt: as §2, §3, §4, §5

[5] = system: Staphylococcus epidermidis; test: as above; format: cell-based
Excerpt: as §2, §3, §5

[6] = system: Staphylococcus haemolyticus; test: as above; format: cell-based; conditions: for MIC: Table 5 organism 3 S. haemolyticus
Excerpt: as §2, §3, §5

[7] = system: Staphylococcus saprophyticus; test: as above; format: cell-based; conditions: for MIC: Table 5 organism 6 S. saprophyticus
Excerpt: as §2, §3, §5

[8] = system: Streptococcus pyogenes; test: as above; format: cell-based; conditions: Table 2 test organism 11, Streptococcus pyogenes
Excerpt: as §2, §3

[9] = system: Coag-neg. Staphylococci; test: MIC against an expanded panel; format: cell-based; conditions: Table 4, Coag-neg. Staphylococci (24 strains)
Excerpt: as §4

[10] = system: Group A Strep.; test: MIC against an expanded panel; format: cell-based; conditions: Table 4, Group A Strep. (6 strains)
Excerpt: as §4

[11] = system: Group B Strep.; test: MIC against an expanded panel; format: cell-based; conditions: Table 4, Group B Strep. (4 strains)
Excerpt: as §4

[12] = system: JK Diptheroids; test: MIC against an expanded panel; format: cell-based; conditions: Table 4, JK Diptheroids (19 strains)
Excerpt: as §4

[13] = system: Viridans; test: MIC against an expanded panel; format: cell-based; conditions: Table 4, Viridans (2 strains)
Excerpt: as §4

[14] = system: S. aureus; test: mice infected intraperitoneally, dosed 1 hr after infection, ED50; format: in vivo; conditions: for ED50: antibiotic i.v. 1 hr post infection
Description: (§6) The in vivo activity of the CWI-785 complex and its components and hydrolysis products was confirmed by administering selected CWI-785 antibiotics to mice infected with various gram-positive pathogens. In one representative assay, in which mice infected intraperitoneally with 46.8 LD50 's of S. aureus (strain 1, Tables 1 and 2) were dosed once, subcutaneously one hour after infection, the following ED50 's (mg/kg) were observed: CWI-785B: 2.4, CWI-785C: 3.1, CWI-785: 3.8, HPB3: 0.9, vancomycin: 0.7. In a second representative assay carried out as above except that mice were infected with 3.17 LD50 's of S. faecalis (strain 9, Table 2), the following ED50 's were observed: HPB3 hydrochloride: 1.6, HPB4 hydrochloride: 1.6, vancomycin: 2.2, teicoplanin: 1.3.
(§7) In Table 6, below, is shown the ED50 in mg/kg of HPB4 in comparison to vancomycin and teicoplanin. Mice were injected i.p. with the indicated organism and then i.v., 1 hr post infection, with the indicated antibiotic.

[15] = system: S. faecalis; test: as above; format: in vivo
Description: as §6, §7

[16] = system: S. epidermidis; test: mice infected i.p., antibiotic i.v. 1 hr post infection, ED50; format: in vivo; conditions: S. epidermidis 2479 (>1000 × LD50) i.p., antibiotic i.v. 1 hr post infection
Description: as §7

[17] = system: S. haemolyticus; test: as above; format: in vivo; conditions: S. haemolyticus 651 (8 × LD50) i.p., antibiotic i.v. 1 hr post infection
Description: as §7

[18] = predicted human half-life; conditions: in comparison to vancomycin
[19] = system: gram-positive organisms; test: in vitro antibacterial activity (stated in words); format: cell-based; conditions: in vitro data
Excerpt: Unless specifically indicated, as used herein, CWI-785B, HPB4 and HPB3 will mean a mixture of epimers. Analogous ' and " epimers of other components of the CWI-785 complex also exist and are included within the scope of the invention.

[20] = Table 4, S. aureus (30 strains)
[21] = Table 4, Strep. faecalis (12 strains)

Question: For `CNC(C(=O)NC1C(=O)NC(CCSC)C(=O)NC2C(=O)NC3C(=O)NC(C(=O)NC(C(=O)[O-])c4cc(O)cc(O)c4-c4cc3ccc4O)C(OC3CC(N)C(O)C(C)O3)c3ccc(c(Cl)c3)Oc3cc2cc(c3O)Oc2ccc(cc2)C1O)c1ccc(O)cc1.[K+]` (stereo not drawn) [HPB4.K], which solubility [1] is on record?
Answer: The solubility was “about 300 mg/ml”.

Question: And the “pH of aqueous solution” value [2]?
Answer: Its value is 9.29.

Question: Which results are given for `CNC(C(=O)NC1C(=O)NC(CCSC)C(=O)NC2C(=O)NC3C(=O)NC(C(=O)NC(C(=O)O)c4cc(O)cc(O)c4-c4cc3ccc4O)C(O[C@H]3C[C@@H](N)[C@@H](O)[C@H](C)O3)c3ccc(c(Cl)c3)Oc3cc2cc(c3O)Oc2ccc(cc2)C1O)c1ccc(O)cc1` (stereo partly drawn) [HPB4]?
Answer: minimum inhibitory concentration ([3]; Table 2 test organism 1, S. aureus strain): 1.6 µg/mL (≈ 1.24 µM); minimum inhibitory concentration ([3]; Table 2 test organism 2, S. aureus strain): 0.8 µg/mL (≈ 0.619 µM); minimum inhibitory concentration ([3]; Table 2 test organism 3, S. aureus strain): 0.8 µg/mL (≈ 0.619 µM); minimum inhibitory concentration ([3]; Table 2 test organism 4, S. aureus strain): 0.8 µg/mL (≈ 0.619 µM); minimum inhibitory concentration ([3]; Table 2 test organism 5, S. aureus strain): 0.8 µg/mL (≈ 0.619 µM); MIC50 [3, 20]: 0.8 µg/mL (≈ 0.619 µM); MIC RANGE [3, 20]: 0.2 to 0.8 µg/mL; MIC ([3]; 50% Hum. Serum): 1.6 µg/mL (≈ 1.24 µM); MIC ([3]; 50% Mse. Serum): 1.6 µg/mL (≈ 1.24 µM); MIC ([3]; No Serum): 1.6 µg/mL (≈ 1.24 µM); minimum inhibitory concentration ([4]; Table 2 test organism 9, Streptococcus faecalis strain): 0.8 µg/mL (≈ 0.619 µM); minimum inhibitory concentration ([4]; Table 2 test organism 10, Streptococcus faecalis strain): 0.8 µg/mL (≈ 0.619 µM); MIC50 [4, 21]: 0.4 µg/mL (≈ 0.31 µM); MIC RANGE [4, 21]: 0.2 to 0.8 µg/mL; MBC50 ([4]; Table 4, Strep. faecalis MBC50): 12.5 µg/mL (≈ 9.68 µM); MBC RANGE ([4]; Table 4, Strep. faecalis MBC50 column): 3.1 to 25 µg/mL; MIC ([4]; Table 5 organism 7 S. faecalis, 50% Hum. Serum): 3.1 µg/mL (≈ 2.4 µM); MIC ([4]; Table 5 organism 7 S. faecalis, 50% Mse. Serum): 3.1 µg/mL (≈ 2.4 µM); MIC ([4]; Table 5 organism 7 S. faecalis, No Serum): 0.4 µg/mL (≈ 0.31 µM); MIC ([4]; Table 5 organism 8 S. faecalis, 50% Hum. Serum): 3.1 µg/mL (≈ 2.4 µM); MIC ([4]; Table 5 organism 8 S. faecalis, 50% Mse. Serum): 3.1 µg/mL (≈ 2.4 µM); MIC ([4]; Table 5 organism 8 S. faecalis, No Serum): 0.4 µg/mL (≈ 0.31 µM); minimum inhibitory concentration ([5]; Table 2 test organism 6, S. epidermidis strain): 1.6 µg/mL (≈ 1.24 µM); minimum inhibitory concentration ([5]; Table 2 test organism 8, S. epidermidis strain): 3.1 µg/mL (≈ 2.4 µM); minimum inhibitory concentration ([5]; Table 2 test organism 12, S. epidermidis strain): 1.6 µg/mL (≈ 1.24 µM); minimum inhibitory concentration ([5]; Table 2 test organism 14, S. epidermidis strain): 0.8 µg/mL (≈ 0.619 µM); MIC ([5]; Table 5 organism 2 S. epidermidis, 50% Hum. Serum): 3.1 µg/mL (≈ 2.4 µM); MIC ([5]; Table 5 organism 2 S. epidermidis, 50% Mse. Serum): 3.1 µg/mL (≈ 2.4 µM); MIC ([5]; Table 5 organism 2 S. epidermidis, No Serum): 1.6 µg/mL (≈ 1.24 µM); MIC ([5]; Table 5 organism 4 S. epidermidis, 50% Hum. Serum): 3.1 µg/mL (≈ 2.4 µM); MIC ([5]; Table 5 organism 4 S. epidermidis, 50% Mse. Serum): 3.1 µg/mL (≈ 2.4 µM); MIC ([5]; Table 5 organism 4 S. epidermidis, No Serum): 3.1 µg/mL (≈ 2.4 µM); MIC ([5]; Table 5 organism 5 S. epidermidis, 50% Hum. Serum): 3.1 µg/mL (≈ 2.4 µM); MIC ([5]; Table 5 organism 5 S. epidermidis, 50% Mse. Serum): 1.6 µg/mL (≈ 1.24 µM); MIC ([5]; Table 5 organism 5 S. epidermidis, No Serum): 0.8 µg/mL (≈ 0.619 µM); minimum inhibitory concentration ([6]; Table 2 test organism 7, Staphylococcus haemolyticus): 1.6 µg/mL (≈ 1.24 µM); MIC ([6]; 50% Hum. Serum): 6.3 µg/mL (≈ 4.88 µM); MIC ([6]; 50% Mse. Serum): 6.3 µg/mL (≈ 4.88 µM); MIC ([6]; No Serum): 1.6 µg/mL (≈ 1.24 µM); minimum inhibitory concentration ([7]; Table 2 test organism 13, Staphylococcus saprophyticus): 1.6 µg/mL (≈ 1.24 µM); MIC ([7]; 50% Hum. Serum): 6.3 µg/mL (≈ 4.88 µM); MIC ([7]; 50% Mse. Serum): 0.2 µg/mL (≈ 0.155 µM); MIC ([7]; No Serum): 0.8 µg/mL (≈ 0.619 µM); minimum inhibitory concentration [8]: 0.2 µg/mL (≈ 0.155 µM); MIC50 [9]: 1.6 µg/mL (≈ 1.24 µM); MIC RANGE [9]: 0.4 to 3.1 µg/mL; MIC50 [10]: 0.4 µg/mL (≈ 0.31 µM); MIC RANGE [10]: 0.05 to 0.8 µg/mL; MIC RANGE [11]: 0.1 to 0.8 µg/mL; MIC50 [12]: 0.4 µg/mL (≈ 0.31 µM); MIC RANGE [12]: 0.4 to 0.8 µg/mL; MIC RANGE [13]: 0.025 to 0.8 µg/mL; ED50 ([14]; S. aureus 2620 (24 × LD50) i.p.): 1.6 mg/kg; ED50 ([14]; S. aureus HH 127 (35 × LD50) i.p.): 1.8 mg/kg; in vivo effectiveness relative to HPB4" ([14]; against S. aureus 127): fourfold more effective; ED50 ([15]; S. faecalis 34358 (9 × LD50) i.p., antibiotic i.v. 1 hr post infection): 1.0 mg/kg; in vivo effectiveness relative to HPB4" ([15]; against S. faecalis 34358): fourfold more effective; ED50 [16]: 2.0 mg/kg; ED50 [17]: 20 mg/kg; human half-life (predicted) [18]: at least 12 hours; in vitro activity relative to the corresponding B" isomer [19]: more active
